{"source": "patent USRE39707E1", "about": "“Camptothecin derivatives” (Catholic Healthcare West, priority 2001, dated 2007)", "key": {"C3H/HeJ mice": {"system": "C3H/HeJ mice", "protocol": "This example provides directions for performing in vivo toxicity tests of the compounds of the invention on C3H/HeJ mice.\nAcute toxicities of the compounds of this invention are evaluated on C3H/HeJ mice (body weight 18-22 g). The MTD40 (maximum tolerated dose at day 40) values were determined by the standard procedure described by Gad and Chengelis (see, for example, “Acute Toxicology Testing,” 2nd Ed., Shayne O. Gad and Christopher P. Chengelis, pp. 186-195 (Academic Press)). In the consecutive type studies, 2 mice were dosed at low and moderate doses of 40 and 100 mg/kg. If no severe and irreversible toxicity (euthanasia is required) occurs at these doses, a new pair of animals was initiated at 180 mg/kg, which is 1.8 times higher than 100 mg/kg. Sequential dosages (about 3 doses on 3 pairs of animals, i.e. 2 mice for each drug dose) were increased by a factor of 1.8 until severe and irreversible toxicity (euthanasia is required) occurred. Then another pair of animals was initiated at the highest nonlethal dosage, and successive dosages were increased by a factor of 1.15. The result of this exercise was two dosages, one apparently nonlethal and the other lethal if severe and irreversible toxicity occurs and euthanasia is required, separated by a factor of 1.15. Six mice were dosed at each dosage. If no severe and irreversible toxicity occurred at the lower dosage and at least one with severe and irreversible toxicity occurred at the higher dose, then the lower dose was considered to be the MTD. The compounds of this invention were administered to C3H/HeJ mice by intraperitoneal injection. Drug toxicity was evaluated on mice checked daily for 45 days."}, "HCT116": {"system": "HCT116", "assay": "Cell colony formation assay, HCT116 cells", "type": "cell-based, human", "conditions": "72 hours drug exposure", "protocol": "(§1) This example provides directions for growing cells and testing compounds of the invention for their effect on the growth of the cells. All cells were purchased from DCIDC Tumor Repository, NCI, NIH.\nThe cells were incubated in a CO2 incubator at 37° C. for 5 hours for attachment to the bottom of Petri dishes. Drugs were made fresh in medium at ten times the final concentration, and then 0.3 ml of this stock solution was added to the 2.7 ml of medium in the dish. The cells were then incubated with drugs for 72 hours at 37° C. At the end of the incubation the drug-containing media were decanted, the dishes were rinsed with 4 ml of Hank's Balance Salt Solution (HBSS), 5 ml of fresh medium was added, and the dishes were returned to the incubator for colony formation. The cell colonies were counted using colony counter after incubation for 7 days for HCT116 cells and PC-3 cells and 8 days for VM46 cells, respectively."}, "PC-3": {"system": "PC-3", "assay": "Cell colony formation assay, PC-3 cells", "type": "cell-based, human", "conditions": "72 hours drug exposure", "protocol": "as §1\n(§2) Four hundred cells (HCT 116, PC-3, NCI/ADR-RES: human breast cancer cells) or five hundred cells (VM46) were plated in 60 mm Petri dishes containing 2.7 ml of medium (modified McCoy's 5a medium) containing 10% fetal bovine serum and 100 units/ml penicillin and […] streptomycin. The cells were incubated in a CO2 incubator at 37° C. for 5 hours for attachment to the bottom of Petri dishes. Drugs were made fresh in medium at ten times the final concentration, and then 0.3 ml of this stock solution was added to the 2.7 ml of medium in the dish. The cells were then incubated with drugs for 72 hours at 37° C. At the end of the incubation the drug-containing media were decanted, the dishes were rinsed with 4 ml of Hank's Balance Salt Solution (HBSS), 5 ml of fresh medium was added, and the dishes were returned to the incubator for colony formation. The cell colonies were counted using colony counter after incubation for 7 days for HCT116 cells and PC-3 cells and 8 days for VM46 cells, respectively.\n(§3) Values of ID50 (the drug concentration producing 50% inhibition of colony formation) may be determined for each tested compound. The directions described in this example may be used in other cells, such as DU-145."}, "VM46": {"system": "VM46", "assay": "Cell colony formation assay, VM46 cells", "type": "cell-based", "conditions": "72 hours drug exposure", "protocol": "as §1, §2, §3"}, "[1]": {"conditions": "maximum tolerated dose at day 40, C3H/HeJ mice"}}, "note": "Read-outs that look alike come from different tables or passages of the source. Marks after values point to notes of the source that are not given here."}
{"molecule": "CCC1(OC(=O)COc2ccc(C(=O)O)cc2)C(=O)OCc2c1cc1n(c2=O)Cc2cc3ccccc3nc2-1", "note": "(stereo not shown) [Example 000725, Camptothecin-20-O-ester of 4-carboxyphenoxyacetic acid]", "values": [{"measurement": "In Vivo Toxicity MTD40 (ip, mg/kg) in C3H/Hej Mice", "setting": "C3H/HeJ mice; [1]", "result": ">150", "unit": "mg/kg"}, {"measurement": "In Vitro Efficacy: Survival (%) of HCT116", "setting": "HCT116; 1 nM", "result": 100, "unit": "%"}, {"measurement": "In Vitro Efficacy: Survival (%) of HCT116", "setting": "HCT116; 10 nM", "result": 0, "unit": "%"}, {"measurement": "In Vitro Efficacy: Survival (%) of HCT116", "setting": "HCT116; 100 nM", "result": 0, "unit": "%"}]}
{"molecule": "CCC1(OC(=O)COc2ccc(C(C)C)cc2)C(=O)OCc2c1cc1n(c2=O)Cc2cc3ccccc3nc2-1", "note": "(stereo not shown) [Example 000418, Camptothecin-20-O-ester of 4-isopropylphenoxyacetic acid]", "values": [{"measurement": "In vitro efficacy: Survival (%) of cells line PC-3", "setting": "PC-3; 1 nM", "result": 100, "unit": "%"}, {"measurement": "In vitro efficacy: Survival (%) of cells line PC-3", "setting": "PC-3; 5 nM", "result": 78.12, "unit": "%"}, {"measurement": "In Vivo Toxicity MTD40 (ip, mg/kg) in C3H/Hej Mice", "setting": "C3H/HeJ mice; [1]", "result": ">150", "unit": "mg/kg"}, {"measurement": "In vitro efficacy: Survival (%) of cells line VM46", "setting": "VM46; 1 nM", "result": 79.17, "unit": "%"}, {"measurement": "In vitro efficacy: Survival (%) of cells line VM46", "setting": "VM46; 10 nM", "result": 0, "unit": "%"}, {"measurement": "In Vitro Efficacy: Survival (%) of HCT116", "setting": "HCT116; 1 nM", "result": 97.56, "unit": "%"}, {"measurement": "In Vitro Efficacy: Survival (%) of HCT116", "setting": "HCT116; 10 nM", "result": 0, "unit": "%"}, {"measurement": "In Vitro Efficacy: Survival (%) of HCT116", "setting": "HCT116; 100 nM", "result": 0, "unit": "%"}]}
{"molecule": "Camptothecin-20-O-ester of ethylexyacetic acid [Example 000627]", "values": [{"measurement": "In Vivo Toxicity MTD40 (ip, mg/kg) in C3H/Hej Mice", "setting": "C3H/HeJ mice; [1]", "result": "<150", "unit": "mg/kg"}, {"measurement": "In Vitro Efficacy: Survival (%) of HCT116", "setting": "HCT116; 1 nM", "result": 70.44, "unit": "%"}, {"measurement": "In Vitro Efficacy: Survival (%) of HCT116", "setting": "HCT116; 10 nM", "result": 0, "unit": "%"}, {"measurement": "In Vitro Efficacy: Survival (%) of HCT116", "setting": "HCT116; 100 nM", "result": 0, "unit": "%"}]}
{"molecule": "CCC1(OC(=O)COc2c(Cl)cc(F)cc2Cl)C(=O)OCc2c1cc1n(c2=O)Cc2cc3ccccc3nc2-1", "note": "(stereo not shown) [Example 000602, Camptothecin-20-O-ester of 2,6-dichloro-4-fluorophenoxyacetic acid]", "values": [{"measurement": "In Vivo Toxicity MTD40 (ip, mg/kg) in C3H/Hej Mice", "setting": "C3H/HeJ mice; [1]", "result": ">150", "unit": "mg/kg"}, {"measurement": "In Vitro Efficacy: Survival (%) of HCT116", "setting": "HCT116; 1 nM", "result": 74.00, "unit": "%"}, {"measurement": "In Vitro Efficacy: Survival (%) of HCT116", "setting": "HCT116; 10 nM", "result": 0, "unit": "%"}, {"measurement": "In Vitro Efficacy: Survival (%) of HCT116", "setting": "HCT116; 100 nM", "result": 0, "unit": "%"}]}
{"molecule": "CCC1(OC(=O)COc2ccc(Cl)cc2)C(=O)OCc2c1cc1n(c2=O)Cc2cc3ccccc3nc2-1", "note": "(stereo not shown) [Example 000517, Camptothecin-20-Oester of 4-chlorophenoxyacetic acid]", "values": [{"measurement": "In Vivo Toxicity MTD40 (ip, mg/kg) in C3H/Hej Mice", "setting": "C3H/HeJ mice; mouse, in vivo", "result": "<150", "unit": "mg/kg"}, {"measurement": "In Vitro Efficacy: Survival (%) of HCT116", "setting": "HCT116; 1 nM", "result": 100, "unit": "%"}, {"measurement": "In Vitro Efficacy: Survival (%) of HCT116", "setting": "HCT116; 10 nM", "result": 0, "unit": "%"}, {"measurement": "In Vitro Efficacy: Survival (%) of HCT116", "setting": "HCT116; 100 nM", "result": 0, "unit": "%"}]}
{"molecule": "CC[C@@]1(O)C(=O)OCc2c1cc1n(c2=O)Cc2cc3ccccc3nc2-1", "note": "[CPT, (S)-4-ethyl-4-hydroxy-1H-pyrano-[3′,4′:6,7]indolizino[1,2-b]quinoline-3,14(4H,12H)-dione, reference compound]", "values": [{"measurement": "In vitro efficacy: Survival (%) of cells line PC-3", "setting": "PC-3; 1 nM", "result": 93.85, "unit": "%"}, {"measurement": "In vitro efficacy: Survival (%) of cells line PC-3", "setting": "PC-3; 5 nM", "result": 33.09, "unit": "%"}, {"measurement": "In Vivo Toxicity MTD40 (ip, mg/kg) in C3H/Hej Mice", "setting": "C3H/HeJ mice; [1]", "result": "<20** mg/kg"}, {"measurement": "In vitro efficacy: Survival (%) of cells line VM46", "setting": "VM46; 1 nM", "result": 77.64, "unit": "%"}, {"measurement": "In vitro efficacy: Survival (%) of cells line VM46", "setting": "VM46; 10 nM", "result": 0, "unit": "%"}, {"measurement": "In Vitro Efficacy: Survival (%) of HCT116", "setting": "HCT116; 1 nM", "result": 100, "unit": "%"}, {"measurement": "In Vitro Efficacy: Survival (%) of HCT116", "setting": "HCT116; 10 nM", "result": 73.72, "unit": "%"}]}
{"molecule": "CCc1c2c(nc3ccc(OC(=O)N4CCC(N5CCCCC5)CC4)cc13)-c1cc3c(c(=O)n1C2)COC(=O)[C@]3(O)CC", "note": "[CPT 11, 7-ethyl-10[4-(1-piperidino)-1-piperidino]carbonyloxy CPT, reference compound]", "values": [{"measurement": "In Vitro Efficacy: Survival (%) of HCT116", "setting": "HCT116; 10 nM", "result": 100, "unit": "%"}, {"measurement": "In Vitro Efficacy: Survival (%) of HCT116", "setting": "HCT116; 100 nM", "result": 90.52, "unit": "%"}]}
{"molecule": "CCC1(OC(=O)COc2ccc(OCc3ccccc3)cc2)C(=O)OCc2c1cc1n(c2=O)Cc2cc3ccccc3nc2-1", "note": "(stereo not shown) [Example 000425, Camptothecin-20-O-ester of 4-benzyloxyphenoxyacetic acid]", "values": [{"measurement": "In vitro efficacy: Survival (%) of cells line PC-3", "setting": "PC-3; 1 nM", "result": 99.28, "unit": "%"}, {"measurement": "In vitro efficacy: Survival (%) of cells line PC-3", "setting": "PC-3; 5 nM", "result": 71.61, "unit": "%"}, {"measurement": "In Vivo Toxicity MTD40 (ip, mg/kg) in C3H/Hej Mice", "setting": "C3H/HeJ mice; [1]", "result": "<150", "unit": "mg/kg"}, {"measurement": "In vitro efficacy: Survival (%) of cells line VM46", "setting": "VM46; 1 nM", "result": 80.46, "unit": "%"}, {"measurement": "In vitro efficacy: Survival (%) of cells line VM46", "setting": "VM46; 10 nM", "result": 0, "unit": "%"}, {"measurement": "In Vitro Efficacy: Survival (%) of HCT116", "setting": "HCT116; 1 nM", "result": 100, "unit": "%"}, {"measurement": "In Vitro Efficacy: Survival (%) of HCT116", "setting": "HCT116; 10 nM", "result": 0, "unit": "%"}, {"measurement": "In Vitro Efficacy: Survival (%) of HCT116", "setting": "HCT116; 100 nM", "result": 0, "unit": "%"}]}
{"molecule": "CCC1(OC(=O)COc2ccc(C#N)c(F)c2)C(=O)OCc2c1cc1n(c2=O)Cc2cc3ccccc3nc2-1", "note": "(stereo not shown) [Example 001030, Camptothecin-20-O-ester of 4-cyano-3-fluorophenoxyacetic acid]", "values": [{"measurement": "In Vitro Efficacy: Survival (%) of HCT116", "setting": "HCT116; 1 nM", "result": 86.90, "unit": "%"}, {"measurement": "In Vitro Efficacy: Survival (%) of HCT116", "setting": "HCT116; 10 nM", "result": 0, "unit": "%"}]}
